Results: ChEMBL document CHEMBL1201862, “PubChem BioAssay data set” (2004)
“And” between values parts separate entries of the source, which are not always exact repeats. Identical values can stand only once.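 Test compounds were applied to cells in 96-well plates for 48 hours at 5 doses. GI50 marks 50% less growth.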 The source made the active and inactive calls. Rule as the data show it: active = GI50 up to about 1.1 µM and inactive = higher.

Experiments:
Test in all cases: growth of human tumour cells (NCI), 48 h
SF-268 = system: SF-268
SNB-75 = system: SNB-75
A549 = system: A549
A498 = system: A498
SN12C = system: SN12C
Malme-3M = system: Malme-3M
K562 = system: K562
LOX IMVI = system: LOX IMVI
MOLT-4 = system: MOLT-4
XF498 = system: XF498
OVCAR-4 = system: OVCAR-4
RXF 631 = system: RXF 631
HOP-62 = system: HOP-62
LXFL 529 = system: LXFL 529
NCI-H226 = system: NCI-H226
SK-OV-3 = system: SK-OV-3
DLD-1 = system: DLD-1
HCT-15 = system: HCT-15
EKVX = system: EKVX
OVCAR-8 = system: OVCAR-8
SNB-78 = system: SNB-78
HOP-18 = system: HOP-18
COLO 205 = system: COLO 205
UACC-62 = system: UACC-62
DMS-273 = system: DMS-273
DMS-114 = system: DMS-114
CCRF-CEM = system: CCRF-CEM
HCC 2998 = system: HCC 2998
IGROV-1 = system: IGROV-1
KM-20L2 = system: KM-20L2
786-0 = system: 786-0
SF-295 = system: SF-295
KM12 = system: KM12
UACC-257 = system: UACC-257
NCI-H23 = system: NCI-H23
HL-60 = system: HL-60
RPMI-8226 = system: RPMI-8226
OVCAR-5 = system: OVCAR-5
ACHN = system: ACHN
RXF 393 = system: RXF 393
SW-620 = system: SW-620
SR = system: SR
HT-29 = system: HT-29
NCI-H460 = system: NCI-H460
CAKI-1 = system: CAKI-1
SK-MEL-2 = system: SK-MEL-2
M14 = system: M14
M19-MEL = system: M19-MEL
SNB-19 = system: SNB-19
SK-MEL-5 = system: SK-MEL-5
OVCAR-3 = system: OVCAR-3
HCT-116 = system: HCT-116
UO-31 = system: UO-31
SK-MEL-28 = system: SK-MEL-28
TK-10 = system: TK-10
U-251 = system: U-251
NCI-H522 = system: NCI-H522
SF-539 = system: SF-539
HOP-92 = system: HOP-92

C/C=C(/CCC1NCCc2c1[nH]c1ccccc21)[Si](C)(C)C (configuration not stated)
GI50 (SF-268): 10.9 µM (inactive)
GI50 (SNB-75): 95.3 µM (inactive) and 6.17 µM (inactive)
GI50 (A549): 14.2 µM (inactive)
GI50 (A498): 19.2 µM (inactive) and 11.3 µM (inactive)
GI50 (SN12C): 5.61 µM (inactive)
GI50 (Malme-3M): 33.3 µM (inactive) and 1.78 µM (inactive)
GI50 (K562): 29.2 µM (inactive) and 2.49 µM (inactive)
GI50 (LOX IMVI): 4.42 µM (inactive)
GI50 (MOLT-4): 37.2 µM (inactive) and 2.37 µM (inactive)
GI50 (XF498): 74.3 µM (inactive) and 1.73 µM (inactive)
GI50 (OVCAR-4): 81.7 µM (inactive) and 4.11 µM (inactive)
GI50 (RXF 631): 58.5 µM (inactive) and 6.87 µM (inactive)
GI50 (HOP-62): 13.5 µM (inactive)
GI50 (LXFL 529): 1.85 µM (inactive)
GI50 (NCI-H226): 13.8 µM (inactive)
GI50 (SK-OV-3): 13.4 µM (inactive)
GI50 (DLD-1): 8.3 µM (inactive)
GI50 (HCT-15): 6.27 µM
GI50 (EKVX): 7.85 µM (inactive)
GI50 (OVCAR-8): 8.97 µM (inactive)
GI50 (SNB-78): 11.6 µM (inactive)
GI50 (HOP-18): 11.9 µM (inactive)
GI50 (COLO 205): 1.94 µM (inactive)
GI50 (UACC-62): 78.9 µM (inactive) and 12.8 µM (inactive)

CC(C)CC(N/C=C1/N=C(c2ccccc2)OC1=O)C(=O)O (configuration not stated)
GI50 (DMS-273): > 100 µM (inactive)
GI50 (DMS-114): > 100 µM (inactive)
GI50 (CCRF-CEM): > 100 µM (inactive)
GI50 (HCC 2998): > 100 µM (inactive)
GI50 (IGROV-1): > 100 µM (inactive)
GI50 (SF-268): > 100 µM (inactive)
GI50 (SNB-75): 37.3 µM (inactive)
GI50 (A549): > 100 µM (inactive)
GI50 (A498): > 100 µM (inactive)
GI50 (KM-20L2): > 100 µM (inactive)
GI50 (SN12C): > 100 µM (inactive)
GI50 (786-0): > 100 µM (inactive)
GI50 (SF-295): > 100 µM (inactive)
GI50 (KM12): > 100 µM (inactive)
GI50 (UACC-257): > 100 µM (inactive)
GI50 (NCI-H23): > 100 µM (inactive)
GI50 (HL-60): > 100 µM (inactive)
GI50 (RPMI-8226): > 100 µM (inactive)
GI50 (OVCAR-5): > 100 µM (inactive)
GI50 (ACHN): > 100 µM (inactive)
GI50 (Malme-3M): > 100 µM (inactive)
GI50 (K562): > 100 µM (inactive)
GI50 (LOX IMVI): > 100 µM (inactive)
GI50 (RXF 393): > 100 µM (inactive)
GI50 (SW-620): > 100 µM (inactive)
GI50 (SR): > 100 µM (inactive)
GI50 (MOLT-4): > 100 µM (inactive)
GI50 (HT-29): > 100 µM (inactive)
GI50 (NCI-H460): > 100 µM (inactive)
GI50 (OVCAR-4): > 100 µM (inactive)
GI50 (RXF 631): > 100 µM (inactive)
GI50 (HOP-62): > 100 µM (inactive)
GI50 (NCI-H226): > 100 µM (inactive)
GI50 (SK-OV-3): > 100 µM (inactive)
GI50 (CAKI-1): > 100 µM (inactive)
GI50 (DLD-1): > 100 µM (inactive)
GI50 (SK-MEL-2): > 100 µM (inactive)
GI50 (HCT-15): > 100 µM
GI50 (M14): > 100 µM (inactive)
GI50 (EKVX): > 100 µM (inactive)
GI50 (M19-MEL): > 100 µM (inactive)
GI50 (SNB-19): > 100 µM (inactive)
GI50 (OVCAR-8): > 100 µM (inactive)
GI50 (SK-MEL-5): > 100 µM (inactive)
GI50 (SNB-78): > 100 µM (inactive)
GI50 (OVCAR-3): > 100 µM (inactive)
GI50 (COLO 205): > 100 µM (inactive)
GI50 (UACC-62): > 100 µM (inactive)
GI50 (HCT-116): > 100 µM (inactive)
GI50 (UO-31): > 100 µM (inactive)
GI50 (SK-MEL-28): > 100 µM (inactive)
GI50 (TK-10): > 100 µM (inactive)
GI50 (U-251): > 100 µM (inactive)
GI50 (NCI-H522): > 100 µM (inactive)
GI50 (SF-539): > 100 µM (inactive)

CC(C)N(C(=O)C12C3C4C1C1C2C3C41I)C(C)C (configuration not stated)
GI50 (DMS-273): > 100 µM (inactive)
GI50 (DMS-114): > 100 µM (inactive)
GI50 (CCRF-CEM): > 100 µM (inactive)
GI50 (HCC 2998): > 100 µM (inactive)
GI50 (IGROV-1): > 100 µM (inactive)
GI50 (SF-268): > 100 µM (inactive)
GI50 (HOP-92): 88.9 µM (inactive)
GI50 (SNB-75): > 100 µM (inactive)
GI50 (A549): > 100 µM (inactive)
GI50 (A498): > 100 µM (inactive)
GI50 (SN12C): > 100 µM (inactive)
GI50 (786-0): > 100 µM (inactive)
GI50 (SF-295): > 100 µM (inactive)
GI50 (KM12): > 100 µM (inactive)
GI50 (NCI-H23): > 100 µM (inactive)
GI50 (HL-60): > 100 µM (inactive)
GI50 (OVCAR-5): 84.3 µM (inactive)
GI50 (ACHN): > 100 µM (inactive)
GI50 (Malme-3M): > 100 µM (inactive)
GI50 (K562): > 100 µM (inactive)
GI50 (SW-620): > 100 µM (inactive)
GI50 (SR): > 100 µM (inactive)
GI50 (MOLT-4): > 100 µM (inactive)
GI50 (XF498): > 100 µM (inactive)
GI50 (HT-29): > 100 µM (inactive)
GI50 (NCI-H460): > 100 µM (inactive)
GI50 (OVCAR-4): > 100 µM (inactive)
GI50 (RXF 631): > 100 µM (inactive)
GI50 (LXFL 529): > 100 µM (inactive)
GI50 (NCI-H226): > 100 µM (inactive)
GI50 (SK-OV-3): > 100 µM (inactive)
GI50 (CAKI-1): > 100 µM (inactive)
GI50 (M14): > 100 µM (inactive)
GI50 (EKVX): > 100 µM (inactive)
GI50 (M19-MEL): > 100 µM (inactive)
GI50 (SNB-19): > 100 µM (inactive)
GI50 (OVCAR-8): > 100 µM (inactive)
GI50 (SK-MEL-5): > 100 µM (inactive)
GI50 (SNB-78): > 100 µM (inactive)
GI50 (OVCAR-3): > 100 µM (inactive)
GI50 (COLO 205): > 100 µM (inactive)
GI50 (UACC-62): > 100 µM (inactive)
GI50 (HCT-116): > 100 µM (inactive)
GI50 (UO-31): > 100 µM (inactive)
GI50 (SK-MEL-28): > 100 µM (inactive)
GI50 (TK-10): > 100 µM (inactive)
GI50 (NCI-H522): > 100 µM (inactive)
GI50 (SF-539): > 10 µM (inactive)
